What all share (type): cell-based
The target of experiment [1] is T1, human Nav1.7 (Homo sapiens, UniProt Q15858).
T1 construct: expressed in transfected cells; host or cells: HEK293
Kind of experiment: Nav 1.7 In Vitro PatchXpress (PX) Assay. The settings on record: HEK 293 cells stably transfected with human Nav1.7; PatchXpress whole cell voltage clamp; partially inactivated state (holding potential yielding 20 to 50% inactivation); read-out: hNav1.7 PX IC50. An outline of the steps: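 Percent inhibition of peak sodium current taken after 3 min exposure to one compound concentration, 3–5 cells each, with IC50 curve fits. Partially inactivated channels (20–50% inactivation at holding potential) in Nav1.7-HEK 293 cells, activated by 20 ms steps to −10 mV every 10 s.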

Experiment [2] addresses T1, human Nav1.7. Nature of the experiment: Nav 1.7 IWQ In Vitro Assay (IonWorks Quattro). Particulars: HEK293 cells stably transfected with human Nav 1.7; IonWorks Quattro population patch-clamp; 26th pulse to −20 mV, 5 Hz; cells unclamped 5 to 8 minutes with compound; read-out: hNav1.7 IWQ IC50. An outline of the steps: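 Population patch clamp on HEK293 cells stably expressing human Nav 1.7: held at −110 mV for three seconds, then 26 pulses of 150 msec to −20 mV at 5 Hz, before and after 5-8 min with one compound concentration. Percent inhibition from peak current at the 26th pulse.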

Experiment [3] addresses T1, human Nav1.7. Kind of experiment: Nav 1.7 IWB In Vitro Assay (IonWorks Barracuda). Particulars: HEK293 cells stably transfected with human Nav 1.7; IonWorks Barracuda population patch-clamp; cells clamped to −20 mV for 4 minutes with compound; 26th pulse; read-out: hNav1.7 IWB IC50. An outline of the steps: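 IC50 derived from concentration-response of percent block of the 26th-pulse peak inward current, compound vs none. Protocol: stable human Nav 1.7 HEK293 cells on automated population patch clamp, held at −110 mV, 5 Hz train of 150 ms steps to −20 mV, 4 min compound exposure depolarized at −20 mV, 3 s repolarization, train repeated.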
(In general: The patch-clamp technique gives a direct electrical read-out from membranes.)

SMILES strings stand for the structures. Bounds are passed on as bounds.

T1 sequence (Q15858 whole entry): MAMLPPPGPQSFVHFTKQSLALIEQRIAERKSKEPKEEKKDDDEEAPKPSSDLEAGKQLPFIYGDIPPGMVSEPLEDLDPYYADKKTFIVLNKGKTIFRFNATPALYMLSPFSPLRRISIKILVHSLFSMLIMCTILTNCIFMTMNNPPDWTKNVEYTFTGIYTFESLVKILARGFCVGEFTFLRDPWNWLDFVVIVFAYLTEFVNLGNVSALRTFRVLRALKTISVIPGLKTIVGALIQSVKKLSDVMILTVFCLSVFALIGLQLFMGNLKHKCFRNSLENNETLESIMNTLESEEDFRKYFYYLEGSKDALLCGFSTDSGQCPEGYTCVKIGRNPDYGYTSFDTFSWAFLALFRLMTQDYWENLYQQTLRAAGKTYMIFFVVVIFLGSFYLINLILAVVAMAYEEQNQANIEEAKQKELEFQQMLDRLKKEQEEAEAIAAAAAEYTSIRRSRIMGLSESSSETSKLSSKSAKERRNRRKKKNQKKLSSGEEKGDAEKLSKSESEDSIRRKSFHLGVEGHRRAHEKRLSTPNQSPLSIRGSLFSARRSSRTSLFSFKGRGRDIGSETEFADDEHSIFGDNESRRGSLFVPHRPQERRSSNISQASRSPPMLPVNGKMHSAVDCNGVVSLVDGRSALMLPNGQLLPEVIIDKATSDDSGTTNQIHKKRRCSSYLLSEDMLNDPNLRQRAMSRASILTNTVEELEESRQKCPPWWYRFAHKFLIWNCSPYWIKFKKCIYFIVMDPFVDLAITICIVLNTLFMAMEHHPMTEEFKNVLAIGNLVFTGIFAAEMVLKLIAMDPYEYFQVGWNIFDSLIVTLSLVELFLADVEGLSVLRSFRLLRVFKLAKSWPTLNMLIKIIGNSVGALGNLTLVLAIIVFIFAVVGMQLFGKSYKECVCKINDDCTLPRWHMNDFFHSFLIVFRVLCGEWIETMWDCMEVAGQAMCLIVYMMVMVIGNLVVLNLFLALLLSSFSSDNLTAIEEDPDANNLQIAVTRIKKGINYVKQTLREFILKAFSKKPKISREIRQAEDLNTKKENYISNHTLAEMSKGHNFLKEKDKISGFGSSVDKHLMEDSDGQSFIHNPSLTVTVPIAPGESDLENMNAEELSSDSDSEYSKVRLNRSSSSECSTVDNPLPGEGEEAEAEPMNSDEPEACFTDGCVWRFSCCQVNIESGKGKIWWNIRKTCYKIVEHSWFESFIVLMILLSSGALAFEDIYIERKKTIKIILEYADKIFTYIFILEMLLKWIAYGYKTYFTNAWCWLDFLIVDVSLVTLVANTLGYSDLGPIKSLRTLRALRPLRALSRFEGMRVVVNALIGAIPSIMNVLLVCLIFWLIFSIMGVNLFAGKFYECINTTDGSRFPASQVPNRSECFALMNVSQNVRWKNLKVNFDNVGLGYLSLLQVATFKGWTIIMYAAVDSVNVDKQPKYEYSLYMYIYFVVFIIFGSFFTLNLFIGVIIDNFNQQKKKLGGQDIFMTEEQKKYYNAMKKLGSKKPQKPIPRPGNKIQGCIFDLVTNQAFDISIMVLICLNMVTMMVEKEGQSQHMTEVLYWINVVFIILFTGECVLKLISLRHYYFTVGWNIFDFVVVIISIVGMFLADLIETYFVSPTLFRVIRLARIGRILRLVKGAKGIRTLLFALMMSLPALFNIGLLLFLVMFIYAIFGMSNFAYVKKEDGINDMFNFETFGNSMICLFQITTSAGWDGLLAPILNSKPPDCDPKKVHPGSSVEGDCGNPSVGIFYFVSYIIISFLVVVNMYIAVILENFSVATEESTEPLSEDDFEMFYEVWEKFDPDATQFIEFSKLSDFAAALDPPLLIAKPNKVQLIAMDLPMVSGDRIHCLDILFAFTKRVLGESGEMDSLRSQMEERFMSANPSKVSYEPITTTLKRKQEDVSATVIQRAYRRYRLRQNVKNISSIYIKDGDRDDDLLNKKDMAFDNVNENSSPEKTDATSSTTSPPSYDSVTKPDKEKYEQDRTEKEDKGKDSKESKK

As for `COc1nc(-c2cc(F)cc(Cl)c2)c(F)cc1-n1c2c(ccc1=O)CN(S(=O)(=O)Nc1cccnn1)CC2` (racemic) [Example 37, (Rac)-1-(6-(3-chloro-5-fluorophenyl)-5-fluoro-2-methoxy-3-pyridinyl)-2-oxo-N-3-pyridazinyl-1,5,7,8-tetrahydro-1,6-naphthyridine-6(2H)-sulfonamide], the 50% inhibitory concentration (IC50) (in general, the midpoint of a concentration-inhibition curve) in experiment [1] is 1030 nM; in experiment [2] it was 137 nM; in experiment [3], 269 nM.
Taken in the same sequence, the figures for `COc1cc(-c2cc(OC)c(-n3c4c(ccc3=O)CN(S(=O)(=O)Nc3ccon3)CC4)cc2F)ccc1C` (single isomer, unassigned) [Example 58-P, P-1-(2-fluoro-3′,5-dimethoxy-4′-methyl-4-biphenylyl)-N-3-isoxazolyl-2-oxo-1,5,7,8-tetrahydro-1,6-naphthyridine-6(2H)-sulfonamide] were 107 nM, 19.4 nM and 9.2 nM.
As to `COc1cc(-c2cc(F)cc(Cl)c2)c(F)cc1-n1c2c(ccc1=O)CN(S(=O)(=O)Nc1ccon1)CC2` (racemic) [Example 18-(Rac), (Rac)-1-(3′-chloro-2,5′-difluoro-5-methoxy-4-biphenylyl)-N-3-isoxazolyl-2-oxo-1,5,7,8-tetrahydro-1,6-naphthyridine-6(2H)-sulfonamide], the IC50 in experiment [1] is 39.9 nM; in experiment [2], 4.3 nM; in experiment [3], 6.9 nM.
In the case of `COc1cc(-c2ccc(F)c(C)c2)c(F)cc1-n1c2c(ccc1=O)CN(S(=O)(=O)Nc1ccon1)CC2` (single isomer, unassigned) [Example 22-P, P-1-(2,4′-difluoro-5-methoxy-3′-methyl-4-biphenylyl)-N-3-isoxazolyl-2-oxo-1,5,7,8-tetrahydro-1,6-naphthyridine-6(2H)-sulfonamide], the concentration for half-maximal inhibition (IC50) in experiment [1] amounted to 106 nM; in experiment [2], 3.2 nM; in experiment [3], 8 nM.
Taken in the same sequence, the figures for `COc1cc(-c2ccc(Cl)c(C)c2)c(F)cc1-n1c2c(ccc1=O)CN(S(=O)(=O)Nc1cccnn1)CC2` (racemic) [Example 33-(Rac), (Rac)-1-(4′-chloro-2-fluoro-5-methoxy-3′-methyl-4-biphenylyl)-2-oxo-N-3-pyridazinyl-1,5,7,8-tetrahydro-1,6-naphthyridine-6(2H)-sulfonamide] were 53.3 nM, 19.6 nM and 26.1 nM.
Taken in the same sequence, the figures for `COc1cc(-c2ccc(F)c(C(F)(F)F)c2)c(F)cc1-n1c2c(ccc1=O)CN(S(=O)(=O)Nc1cccnn1)CC2` [Example 71, P-1-(2,4′-difluoro-5-methoxy-3′-(trifluoromethyl)-[1,1′-biphenyl]-4-yl)-2-oxo-N-(pyridazin-3-yl)-1,2,7,8-tetrahydro-1,6-naphthyridine-6(5H)-sulfonamide] were 29.4 nM, 2.8 nM and 6.9 nM.
Taken in the same sequence, the figures for `COc1cc(-c2ccc(C)c(F)c2)c(F)cc1-n1c2c(ccc1=O)CN(S(=O)(=O)Nc1ccon1)CC2` (single isomer, unassigned) [Example 21-P, P-1-(2,3′-difluoro-5-methoxy-4′-methyl-4-biphenylyl)-N-3-isoxazolyl-2-oxo-1,5,7,8-tetrahydro-1,6-naphthyridine-6(2H)-sulfonamide] were 24.3 nM, 7.7 nM and 9.5 nM.
Consider `COc1cc(-c2cc(F)cc(Cl)c2)c(F)cc1-n1c2c(ccc1=O)CN(S(=O)(=O)Nc1cccnn1)CC2` (single isomer, unassigned) [Example 38-P, P-1-(3′-chloro-2,5′-difluoro-5-methoxy-4-biphenylyl)-2-oxo-N-3-pyridazinyl-1,5,7,8-tetrahydro-1,6-naphthyridine-6(2H)-sulfonamide], for which the IC50 was found to be 56.1 nM in experiment [1], 6.7 nM in experiment [2] and 10.9 nM in experiment [3].
Taken in the same sequence, the figures for `COc1cc(-c2ccc(Cl)c(C)c2)c(F)cc1-n1c2c(ccc1=O)CN(S(=O)(=O)Nc1ncccn1)CC2` (single isomer, unassigned) [Example 30-P, P-1-(4′-chloro-2-fluoro-5-methoxy-3′-methyl-4-biphenylyl)-2-oxo-N-2-pyrimidinyl-1,5,7,8-tetrahydro-1,6-naphthyridine-6(2H)-sulfonamide] were 197 nM, 13.3 nM and 37.5 nM.
The matching figures for `COc1cc(-c2cc(F)cc(Cl)c2)c(F)cc1-n1c2c(ccc1=O)CN(S(=O)(=O)Nc1cccc(F)n1)CC2` (single isomer, unassigned) [Example 13-P, P-1-(3′-chloro-2,5′-difluoro-5-methoxy-4-biphenylyl)-N-(6-fluoro-2-pyridinyl)-2-oxo-1,5,7,8-tetrahydro-1,6-naphthyridine-6(2H)-sulfonamide]: 27.9 nM, 28.4 nM and 27.1 nM.
The matching figures for `COc1cc(C#CC2CCCC2)c(F)cc1-n1c2c(ccc1=O)CN(S(=O)(=O)Nc1ccon1)CC2` (single isomer, unassigned) [Example 34-P, P-1-(4-(cyclopentylethynyl)-5-fluoro-2-methoxyphenyl)-N-3-isoxazolyl-2-oxo-1,5,7,8-tetrahydro-1,6-naphthyridine-6(2H)-sulfonamide]: 192 nM, 9.2 nM and 12.2 nM.
For `COc1cc(-c2cc(F)cc(Cl)c2)c(F)cc1-n1c2c(ccc1=O)CN(S(=O)(=O)Nc1cccc(F)n1)CC2` (racemic) [Example 13-(Rac), (Rac)-1-(3′-chloro-2,5′-difluoro-5-methoxy-4-biphenylyl)-N-(6-fluoro-2-pyridinyl)-2-oxo-1,5,7,8-tetrahydro-1,6-naphthyridine-6(2H)-sulfonamide], the values for the IC50 in experiment [1], in experiment [2] and in experiment [3] were 123 nM, 33.2 nM and 27.6 nM, respectively.
For the molecule `COc1cc(-c2ccc(F)c(F)c2)c(F)cc1-n1c2c(ccc1=O)CN(S(=O)(=O)Nc1cccnn1)CC2` (single isomer, unassigned) [Example 32-P, P-2-oxo-N-3-pyridazinyl-1-(2,3′,4′-trifluoro-5-methoxy-4-biphenylyl)-1,5,7,8-tetrahydro-1,6-naphthyridine-6(2H)-sulfonamide], the results for the IC50 in experiment [1], in experiment [2] and in experiment [3] were 144 nM, 18.4 nM and 17.5 nM, respectively.
Taken in the same sequence, the figures for `COc1cc(-c2ccc(Cl)c(C)c2)c(F)cc1-n1c2c(ccc1=O)CN(S(=O)(=O)Nc1cccnn1)CC2` (single isomer, unassigned) [Example 33-P, P-1-(4′-chloro-2-fluoro-5-methoxy-3′-methyl-4-biphenylyl)-2-oxo-N-3-pyridazinyl-1,5,7,8-tetrahydro-1,6-naphthyridine-6(2H)-sulfonamide] were 21.3 nM, 14.7 nM and 12.6 nM.
The matching figures for `COc1cc(-c2cc(C(F)(F)F)cnc2OC)c(F)cc1-n1c2c(ccc1=O)CN(S(=O)(=O)Nc1ccon1)CC2` (racemic) [Example 23, (Rac)-1-(5-fluoro-2-methoxy-4-(2-methoxy-5-(trifluoromethyl)-3-pyridinyl)phenyl)-N-3-isoxazolyl-2-oxo-1,5,7,8-tetrahydro-1,6-naphthyridine-6(2H)-sulfonamide]: 25.4 nM, 7 nM and 6.8 nM.
On to `COc1cc(-c2cc(OC)c(-n3c4c(ccc3=O)CN(S(=O)(=O)Nc3cccnn3)CC4)cc2F)ccc1Cl` (single isomer, unassigned) [Example 2-P, P-1-(4′-chloro-2-fluoro-3′,5-dimethoxy-4-biphenylyl)-2-oxo-N-3-pyridazinyl-1,5,7,8-tetrahydro-1,6-naphthyridine-6(2H)-sulfonamide], for which the IC50 in experiment [1] is 259 nM; in experiment [2] it was under 19 nM; in experiment [3], 6.6 nM.

The values above are taken from patent US10472356B2, “Bicyclic ketone sulfonamide compounds” (AMGEN INC., priority 2015, dated 2019).
